Test results reported in paper PMC7238042, “π-π-Stacked Poly(ε-caprolactone)-b-poly(ethylene glycol) Micelles Loaded with a Photosensitizer for Photodynamic Therapy” (Pharmaceutics, 2020).
Read-outs that look alike come from different tables or passages of the source.

What was measured:
[1] = Side effects after i.v. administration in mice; type: in vivo, Balb/c nude mice
A431 cells = tested on: A431 cells; design: method as in PMID 32142290; conditions: same conditions, cited from earlier work
HeLa cells = tested on: HeLa cells; design: method as in PMID 32142290; conditions: cited from earlier work
cells = tested on: cells; design: method as in PMID 32142290; conditions: cited from earlier work
in vivo [2] = conditions: female, Balb/c nude, mouse, plasma, iv, 300 ug/kg
Protocol: (§1) Mice were inoculated with 1 × 10^6 A431 cells suspended in 100 μL PBS subcutaneously into the right flank. […] Tumors were measured using a digital caliper. The tumor volume V (in mm^3) was calculated using the equation V = (π/6)LS^2, in which L is the largest and S is the smallest superficial diameter [30].
(§2) For the latter, mice were killed through cervical dislocation while under deep isoflurane anesthesia. […] The plasma supernatant was collected, extracted using acetonitrile/DMSO (4:1, v/v), and analyzed by high-performance liquid chromatography (HPLC) and a LI-COR Odyssey imaging system to quantify the amount of mTHPC and Cy7-labeled micelles, respectively, as previously described [38]. Plasma concentration curves were analyzed by non-compartmental analysis with the PKSolver add-in for Microsoft Excel [40].

in vivo [3] = conditions: female, Balb/c nude, mouse, intravenous, 0.3 mg/kg
Protocol: as §1
(§3) Tumors and a panel of organs (spleen, liver, lung, heart, kidney, skin, femur, and brain) were excised and imaged ex vivo by 2D fluorescence reflectance imaging (FRI) using a Pearl Trilogy imager from LI-COR and then stored at −80 °C until further processing for quantification. Organs and tumors from three untreated animals were used as controls.
(§4) To quantify the content of mTHPC and micelles in the tumors and the different organs, the excised tissue samples were treated as follows. First, 100 μL of RIPA lysis buffer was added to 100 mg of sliced tissues or organs. The mixture was homogenized by a tissue grinder (Percellys 24) at a speed of 6000/s for 60 s (for femur samples, 6000/s for 180 s) and the homogenate was subsequently aliquoted. To determine the mTHPC concentration in the samples, 1 volume of an aliquot of the homogenate (30 μL) was mixed with 120 μL of acetonitrile/DMSO (4:1 v/v) and vortexed for 1 min. The mixture was then centrifuged at 15,000× g for 10 min. Next, 50 μL of the obtained supernatant was injected into the HPLC system consisting of a Waters X Select Charged Surface Hybrid (CSH) C18 3.5 μm 4.6 × 150 mm column coupled with a fluorescence detector set at λex 420 nm and λem 650 nm to analyze mTHPC concentration [38]. The mobile phase was 0.1 % trifluoroacetic acid in acetonitrile/water (60:40, v/v) at a flow rate of 1 mL/min. The measuring range was from 0.005 to 4 μg/mL and the detection limit was 5 ng/mL. Calibration curves were obtained from a series of standard solutions of mTHPC in DMSO, to which 45 μL of the corresponding homogenized tissue samples obtained from control mice (i.e., not treated with any formulations) was added, followed by mTHPC extraction using acetonitrile/DMSO (4:1, v/v) and HPLC analysis.
(§5) To determine the concentration of Cy7-labeled micelles in the tissue homogenates, 1 volume of another aliquot of the homogenate (30 μL) was vortex-mixed with 2 volumes of RIPA lysis buffer (60 μL) for 1 min. The fluorescence of Cy7 in the mixture (20 μL) was detected at the 800 nm channel (i.e., λex 785 nm and λem 820 nm), using a LI-COR Odyssey scanner imaging system, and a calibration curve was obtained using samples with different concentrations of Cy7-labeled copolymer in a mixture of RIPA buffer (1 volume) and the corresponding homogenized tumor or organ samples (2 volumes) obtained from non-treated mice.

[4] = Circulation kinetics in A431 tumor-bearing mice (plasma Cy7 and mTHPC); conditions: mTHPC detection, i.v. 300 µg mTHPC/kg
Protocol: as §1, §2

[5] = Biodistribution in A431 tumor-bearing mice (Cy7 fluorescence and mTHPC HPLC); conditions: 4 h
Protocol: as §1, §3, §4, §5

[6] = design: method as in PMID 25388924; conditions: cited from earlier work

Row | Molecule | side effects after i.v. administration ([1]; 300 µg mTHPC/kg, free mTHPC in ethanol/propylene glycol/PBS 20:30:50, micelles ~1 mg polymer, also reported in ref 38) | loss of body weight ([1]; on average, within 24 h after i.v. injection) | EC50 (A431 cells; listed as free mTHPC) | EC50 (A431 cells) | EC50 (HeLa cells) | EC50 (HeLa cells; listed as free mTHPC) | mTHPC concentration toxic to cells without illumination (cells; after 7 h) | mTHPC concentration toxic to cells without illumination (cells; after 24 h) | Vd (in vivo [2]) | clearance (in vivo [2]) | tissue uptake at 4 h (in vivo [3]; liver) | tissue uptake at 24 h (in vivo [3]; liver) | tissue uptake at 24 h (in vivo [3]; tumor, kidney, heart, femur) | AUC [4] | Half-life Phase α ([4]; estimated from first hour) | Half-life Phase β ([4]; non-compartmental analysis) | total mTHPC accumulation in liver [5] | total mTHPC accumulation in spleen or lung [5] | quenching concentration ([6]; in aromatic-substituted thermosensitive micelles, 0.45 mg/mL polymer) | quenching concentration ([6]; in corresponding non-aromatic micelles)
1 | Oc1cccc(-c2c3nc(c(-c4cccc(O)c4)c4ccc([nH]4)c(-c4cccc(O)c4)c4nc(c(-c5cccc(O)c5)c5ccc2[nH]5)CC4)C=C3)c1 [Free mTHPC, meta-tetra(hydroxyphenyl)chlorin] | tachypnea, passiveness immediately post-injection | ~ 1 g | ~ 1.5 µg/mL | 1.6 ± 0.1 [38] µg/mL | 1.2 [38] µg/mL | ~ 1.5 µg/mL | higher than 50 µg/mL | > 20 µg/mL | 0.12 L/kg | 0.22 mL/min/kg | ~15 %ID/g | ~5 %ID/g | 2 to 3 %ID/g | 442 h*% | ≤0.5 h | 2.1 h | ~ 15 % ID per liver | ~ 1 % ID per spleen or lung |  | 
2 | axially solketal-substituted silicon phthalocyanine [Si(sol)2Pc] |  |  |  |  |  |  |  |  |  |  |  |  |  |  |  |  |  |  | 16 µg/mL | ~ 0.05 µg/mL
